Test results taken from PMC9610606, “Design, Synthesis, In Silico Testing, and In Vitro Evaluation of Thiazolidinone-Based Benzothiazole Derivatives as Inhibitors of α-Amylase and α-Glucosidase” (Pharmaceuticals, 2022).

Tests used:
[1] = target: T1, α-amylase (Sus scrofa, UniProt P00690); assay: In vitro α-amylase inhibitory assay; assay type: biochemical
T1 sequence (P00690 16-511): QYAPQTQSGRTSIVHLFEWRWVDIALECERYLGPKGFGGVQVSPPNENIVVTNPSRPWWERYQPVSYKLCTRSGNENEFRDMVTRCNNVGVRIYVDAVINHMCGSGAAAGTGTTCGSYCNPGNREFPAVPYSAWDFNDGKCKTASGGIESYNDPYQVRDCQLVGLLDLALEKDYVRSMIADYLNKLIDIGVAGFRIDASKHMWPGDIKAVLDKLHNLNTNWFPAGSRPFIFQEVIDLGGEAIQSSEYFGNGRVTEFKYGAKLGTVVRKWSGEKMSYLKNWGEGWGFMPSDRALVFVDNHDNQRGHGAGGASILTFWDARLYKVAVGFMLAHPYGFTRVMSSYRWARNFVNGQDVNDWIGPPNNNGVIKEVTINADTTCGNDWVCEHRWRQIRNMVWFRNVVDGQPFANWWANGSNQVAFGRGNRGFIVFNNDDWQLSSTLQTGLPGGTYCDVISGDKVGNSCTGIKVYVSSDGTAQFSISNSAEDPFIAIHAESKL
Experimental: (§1) Biological profile of all the candidates were obtained through experimental-based analysis, as described in the inhibitory assay (5.3 and 5.4). […]
absorbance was recorded using an ELISA microplate reader at 540 nm. […]
the standard. All the reactions were carried out in triplicates. The reaction mixture, devoid of the test sample, served as control. […]
(§2) PDB format. The process was further carried out in auto dock in which polar hydrogen and Kollman and Gasteiger charges were add ed to protein. Selected ligand was also prepared done by using torsion tree to detect root. Moreover, configuration file was generated along with X, Y and Z axis save both ligand and protein in PDBQT format in the same docking folder. At the end

[2] = target: α-glucosidase (Saccharomyces cerevisiae, UniProt P53341); assay type: biochemical
Chain of α-glucosidase (P53341 whole entry): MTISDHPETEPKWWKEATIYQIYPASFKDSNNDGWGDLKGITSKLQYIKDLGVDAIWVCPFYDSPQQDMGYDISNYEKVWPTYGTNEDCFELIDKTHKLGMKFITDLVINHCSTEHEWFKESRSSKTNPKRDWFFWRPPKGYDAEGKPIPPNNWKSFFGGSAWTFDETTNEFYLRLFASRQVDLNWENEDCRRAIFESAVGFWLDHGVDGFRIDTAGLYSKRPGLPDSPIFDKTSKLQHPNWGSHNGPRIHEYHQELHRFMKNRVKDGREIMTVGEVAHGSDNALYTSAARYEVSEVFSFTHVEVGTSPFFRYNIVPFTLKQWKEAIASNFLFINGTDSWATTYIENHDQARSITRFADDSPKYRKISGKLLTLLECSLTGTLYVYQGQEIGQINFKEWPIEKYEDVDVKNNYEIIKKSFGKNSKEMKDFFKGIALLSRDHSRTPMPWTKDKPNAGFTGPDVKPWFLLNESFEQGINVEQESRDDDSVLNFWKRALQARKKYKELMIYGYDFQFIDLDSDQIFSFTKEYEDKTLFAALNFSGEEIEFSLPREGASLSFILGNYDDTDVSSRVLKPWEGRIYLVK
Experimental: as §1
5.4 α-glucosidase inhibitory assay protocol
10 µl of the α-glucosidase enzyme, 20 µl of test samples (10-50 µg/ml) and 50 µl, of 0.1M […]
nitrophenyl—D-g lucopy ranoside solution was fu rther added as a substrate and again incubated for 20 min at 37 °C. Sodium carbonate (50 µl of 0.1M) was added to terminate the reaction. P- […]
conditions by omitting test samples. All the experiments were carried out in triplicates. The percentage inhibition was calculated by the formula.
% Inhibition = [(Ac – As) /Ac] × 100 Ac-absorbance for control, As-absorbance for standard. […]
as §2

| melting point | Molecule | IC50 [1] | IC50 [2] |
| --- | --- | --- | --- |
| 227 to 228 °C | CN(C)c1cc(/C=C2\S/C(=N\c3nccs3)NC2=O)cc2scnc12 [Compound 10, (2Z,5Z)-5-((4-(dimethylamino)benzo[d]thiazol-6-yl)methylene)-2-(thiazol-2-ylimino)thiazolidin-4-one] |  |  |
| 241 to 242 °C | O=C1N/C(=N/c2nccs2)S/C1=C\c1ccc2ncsc2c1-c1cccc([N+](=O)[O-])c1Cl [Compound 9, (2Z,5Z)-5-((7-(2-chloro-3-nitrophenyl)benzo[d]thiazol-6-yl)methylene)-2-(thiazol-2-ylimino)thiazolidin-4-one] |  |  |
|  | (2Z,5Z)-5-((7-hydroxy-4-(trifluoromethyl)benzo[d]thiazol-6-yl)methylene)-2-(thiazol-2-ylimino)thiazolidin-4-one [Compound 6] | 2.1 ± 0.7 µM | 3.2 ± 0.7 µM |
|  | (2Z,5Z)-5-((5-nitrobenzo [d]thiazol-6-yl) methylene)-2-(thiazol-2-ylimino)thiazolidin-4-one [Compound 1] | 7.7 ± 0.2 µM | 8.8 ± 0.2 µM |
| 243 to 244 °C | N#Cc1cccc(-c2c(/C=C3\S/C(=N\c4nccs4)NC3=O)ccc3ncsc23)c1 [Compound 15, 3-(6-((Z)-((Z)-4-oxo-2-(thiazol-2-ylimino)thiazolidin-5-ylidene)methyl)benzo[d]thiazol-7-yl)benzonitrile] |  |  |
